Measured values: patent publication US9227979B2, “Fluorescent antagonists of the A3 adenosine receptor” (The United States of America, as represented by the …, priority 2012, dated 2016)

Key:
[1] = target: T1, hA3AR (Homo sapiens (Human), UniProt P0DMS8); test: FCM competitive binding in whole CHO cells using MRS5449 as tracer; conditions: whole CHO cells expressing hA3AR; 5 nM MRS5449 tracer; 90 min at 37° C.
Method: Total binding was measured in the absence of the competitor.
At the end of each time interval, the medium was removed and cells were washed three times with ice-cold DPBS. After washing, 1 ml 0.2% EDTA solution was added to each well, and cells were incubated at 37° C. for 7 min. Following cell detachment, 1 ml medium was added to each well to neutralize the EDTA. The cell suspensions were transferred to polystyrene round-bottom BD Falcon tubes (BD, Franklin Lakes, N.J.) and centrifuged for 5 min at 23° C. and 400×g. After centrifugation, the supernatant was discarded, and cells were washed with 3 ml PBS and centrifuged again at 23° C. and 400×g for 5 min. After discarding the supernatant, cells were suspended in 0.5 ml PBS and analyzed by FCM.
The intensity of fluorescence emission of each sample was measured by using FCM. […] Samples were maintained in the dark during the analysis to avoid photobleaching. MFIs were obtained in the FL-1 channel in log mode. Ten thousand events were analyzed per sample.
Data analysis was performed with the Prism 5 (GraphPad, San Diego Calif.) software. The mean autofluorescence of CHO cells was measured in the absence of the fluorescent ligand.

[2] = target: T1, hA3AR; test: Radioligand membrane binding assay at hA3AR ([125I]I-AB-MECA); conditions: Table 3; read-out: A3 Ki
Method: (§1) For cell cultures used in radioligand binding assays, after harvest and homogenization, the cells were centrifuged at 200×g for 10 min, and the pellet was re-suspended in 50 mM Tris-HCl buffer (pH 7.5), containing 10 mM MgCl2. The suspension was homogenized with an electric homogenizer for 10 s and was then re-centrifuged at 20,000×g for 20 min at 4° C. The resultant membrane pellets were resuspended in buffer in the presence of 3 units/ml adenosine deaminase, and the suspension was stored at −80° C. until the binding experiments. The protein concentration was measured using the Bradford assay. Radioligand membrane binding assays

[3] = target: hA2AAR (Homo sapiens (Human), UniProt P29274); test: Radioligand membrane binding assay at hA2A AR ([3H]CGS21680); conditions: Table 3; read-out: A2A Ki
hA2AAR, sequence (P29274 whole entry): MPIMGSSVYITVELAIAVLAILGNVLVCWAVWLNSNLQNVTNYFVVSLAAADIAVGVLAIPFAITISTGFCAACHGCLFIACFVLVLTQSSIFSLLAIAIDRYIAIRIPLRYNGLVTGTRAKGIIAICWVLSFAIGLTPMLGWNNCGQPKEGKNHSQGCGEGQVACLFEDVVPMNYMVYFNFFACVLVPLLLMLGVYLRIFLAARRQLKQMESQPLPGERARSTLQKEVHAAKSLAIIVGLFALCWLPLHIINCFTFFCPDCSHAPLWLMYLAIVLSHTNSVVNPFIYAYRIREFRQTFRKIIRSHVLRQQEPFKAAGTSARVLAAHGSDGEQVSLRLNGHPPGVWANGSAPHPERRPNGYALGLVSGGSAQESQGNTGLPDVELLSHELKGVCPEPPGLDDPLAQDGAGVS
Method: as §1

[4] = target: hA1 AR (Homo sapiens (Human), UniProt P30542); test: Radioligand membrane binding assay at hA1 AR ([3H]R-PIA); conditions: Table 3
hA1 AR, sequence (P30542 whole entry): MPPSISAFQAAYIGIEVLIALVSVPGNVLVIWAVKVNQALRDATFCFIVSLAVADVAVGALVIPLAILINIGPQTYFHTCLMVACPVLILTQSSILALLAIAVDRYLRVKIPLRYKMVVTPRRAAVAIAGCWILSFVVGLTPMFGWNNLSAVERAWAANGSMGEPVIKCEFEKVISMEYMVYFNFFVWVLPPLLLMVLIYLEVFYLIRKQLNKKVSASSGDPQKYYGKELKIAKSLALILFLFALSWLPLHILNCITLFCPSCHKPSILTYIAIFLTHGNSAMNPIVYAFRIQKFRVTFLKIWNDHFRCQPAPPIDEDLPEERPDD
Method: as §1

T1 sequence (P0DMS8 whole entry): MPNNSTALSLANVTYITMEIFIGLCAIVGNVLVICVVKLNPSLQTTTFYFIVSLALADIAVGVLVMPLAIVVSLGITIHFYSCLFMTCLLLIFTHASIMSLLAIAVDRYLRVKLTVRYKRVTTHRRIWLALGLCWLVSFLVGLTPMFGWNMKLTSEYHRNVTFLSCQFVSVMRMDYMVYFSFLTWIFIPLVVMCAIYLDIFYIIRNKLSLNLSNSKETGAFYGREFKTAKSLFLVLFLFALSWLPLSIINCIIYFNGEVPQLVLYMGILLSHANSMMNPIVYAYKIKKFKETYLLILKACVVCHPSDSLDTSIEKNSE

OC[C@H]1O[C@@H](n2cnc3c(NC4CCCC4)ncnc32)[C@H](O)[C@@H]1O [CPA, (2R,3R,4S,5R)-2-[6-(cyclopentylamino)purin-9-yl]-5(hydroxymethyl)oxolane-3,4-diol]
Ki [1]: 1490 ± 230 nM

Nc1nc2ccc(Cl)cc2c2nc(-c3ccco3)nn12 [Compound 7]
Ki [1]: 16.1 ± 6.2 nM

Cn1cc2c(nc(NC(=O)Nc3ccc(CC(=O)NCCCCNC(=O)OC(C)(C)C)cc3)n3nc(-c4ccco4)nc23)n1 [Compound 13, tert-Butyl (4-(2-(4-(3-(2-(furan-2-yl)-8-methyl-8H-pyrazolo[4,3-e][1,2,4]triazolo[1,5-c]pyrimidin-5-yl)ureido)phenyl)acetamido)butyl)carbamate]
melting point: 186 to 193 °C | Ki [2]: 3.46 ± 0.33 nM | Ki [3]: 304 ± 20 nM | A1 % inhibition [4]: 2% ± 2%

Cn1cc2c(nc(NC(=O)Nc3ccc(CC(=O)NCCCNC(=O)OC(C)(C)C)cc3)n3nc(-c4ccco4)nc23)n1 [Compound 12, tert-Butyl (3-(2-(4-(3-(2-(furan-2-yl)-8-methyl-8H-pyrazolo[4,3-e][1,2,4]triazolo[1,5-c]pyrimidin-5-yl)ureido)phenyl)acetamido)propyl)carbamate]
melting point: 198 to 205 °C | Ki [2]: 2.75 ± 0.2 nM | Ki [3]: 150 ± 11 nM | A1 % inhibition [4]: 15% ± 5%

Cn1cc2c(nc(NC(=O)Nc3ccc(CC(=O)NCCCOCCOCCOCCCNC(=O)OC(C)(C)C)cc3)n3nc(-c4ccco4)nc23)n1 [Compound 16, tert-Butyl (1-(4-(3-(2-(furan-2-yl)-8-methyl-8H-pyrazolo[4,3-e][1,2,4]triazolo[1,5-c]pyrimidin-5-yl)ureido)phenyl)-2-oxo-7,10,13-trioxa-3-azahexadecan-16-yl)carbamate]
melting point: 151 to 158 °C | Ki [2]: 82.4 ± 20.1 nM | Ki [3]: 327 ± 32 nM | A1 % inhibition [4]: 11% ± 5%

Cn1cc2c(nc(NC(=O)Nc3ccc(CC(=O)NCCCCN)cc3)n3nc(-c4ccco4)nc23)n1.O=C(O)C(F)(F)F [Compound 18, N-(4-Aminobutyl)-2-(4-(3-(2-(furan-2-yl)-8-methyl-8H-pyrazolo[4,3-e][1,2,4]triazolo[1,5-c]pyrimidin-5-yl)ureido)phenyl)acetamide trifluoroacetate salt]
melting point: 167 to 173 °C | Ki [2]: 6 ± 1.29 nM | Ki [3]: 172 ± 33 nM | A1 % inhibition [4]: 4% ± 1%

Nc1nc(NCCc2ccc(O)cc2)nc2nc(-c3ccco3)nn12 [ZM241385, 4-(2-[7-amino-2-(2-furyl)[1,2,4]triazolo[2,3-a][1,3,5]triazin-5-ylamino]ethyl)phenol]
Ki [1]: 300 ± 27 nM

Cn1cc2c(nc(NC(=O)Nc3ccc(CC(=O)NCCOCCOCCN)cc3)n3nc(-c4ccco4)nc23)n1.O=C(O)C(F)(F)F [Compound 20, 2-(2-(2-(2-(4-(3-(2-(furan-2-yl)-8-methyl-8H-pyrazolo[4,3-e][1,2,4]triazolo[1,5-c]pyrimidin-5-yl)ureido)phenyl)acetamido)ethoxy)ethoxy)ethanamine trifluoroacetate salt]
melting point: 152 to 160 °C | Ki [2]: 19.2 ± 3.3 nM | Ki [3]: 267 ± 61 nM | A1 % inhibition [4]: 17% ± 3%

Cn1cc2c(nc(NC(=O)Nc3ccc(CC(=O)NCCCOCCOCCOCCCN)cc3)n3nc(-c4ccco4)nc23)n1.O=C(O)C(F)(F)F [Compound 21, N-(3-(2-(2-(3-aminopropoxy)ethoxy)ethoxy)propyl)-2-(4-(3-(2-(furan-2-yl)-8-methyl-8H-pyrazolo[4,3-e][1,2,4]triazolo[1,5-c]pyrimidin-5-yl)ureido)phenyl)acetamide trifluoroacetate salt]
melting point: 133 to 140 °C | Ki [2]: 10.3 ± 0.4 nM | Ki [3]: 328 ± 77 nM | A1 % inhibition [4]: 1% ± 1%

Cn1cc2c(nc(NC(=O)Nc3ccc(CC(=O)NCCOCCOCCNC(=O)OC(C)(C)C)cc3)n3nc(-c4ccco4)nc23)n1 [Compound 15, tert-Butyl (2-(2-(2-(2-(4-(3-(2-(furan-2-yl)-8-methyl-8H-pyrazolo[4,3-e][1,2,4]triazolo[1,5-c]pyrimidin-5-yl)ureido)phenyl)acetamido)-ethoxy)ethoxy)ethyl)carbamate]
melting point: 157 to 165 °C | Ki [2]: 74.8 ± 10.1 nM | Ki [3]: 456 ± 96 nM | A1 % inhibition [4]: 7% ± 5%

C#CCCCCCC(=O)Nc1nc2nn(C)cc2c2nc(-c3ccco3)nn12 [Compound 39, N-(2-(furan-2-yl)-8-methyl-8H-pyrazolo[4,3-e][1,2,4]triazolo[1,5-c]pyrimidin-5-yl)oct-7-ynamide]
melting point: 204 to 208 °C (dec.) | Ki [2]: 12.8 nM | Ki [3]: 482 ± 141 nM | A1 % inhibition [4]: 62% ± 3%
